Legend:
[1] = biological target: T1, bovine rhodopsin activation of bovine rod transducin (Bos taurus, UniProt P02699); assay: radioactive filter binding assay: rhodopsin activation of bovine rod transducin (35S-GTPγS binding); type: biochemical
T1 construct: Rhodopsin can be purified from membrane fractions isolated from bovine rod outer segments; from tissue; host or cells: bovine retina / bovine rod outer segments
From the text: Vision enhancing activity of the estradiol analogs or derivatives can be examined in accordance with methods described herein or well known in the art. For example, the compounds can be assessed for ability to promote rhodopsin activation of rod transducin using a well-described radioactive filter binding assay. Detailed procedures for carrying out the assay are described in the art, e.g., Kono et al., Biochem. 44:799, 2005; Kono et al., FEBS Lett. 580:229-232, 2006; and Robinson et al., Methods Enzymol. 315:207-218, 2000). […] Effect of estradiol or an analog compound on rhodopsin activation of rod transducing can then be measured by monitoring binding of [35S]GTPγS to transducin in the presence or absence of the compound. The reaction mixture can contain, e.g., an appropriate buffer (e.g., an HEPES buffer or 10 mM Tris/1 mM MES buffer (pH 7.5)), 1 mM dithiothreitol, 5 mM MgCl2, 115 mM NaCl, 2.5 μM transducin, 0.01% DM, and 5 nM pigment (as determined from the extinction coefficient).
We examined the effect of the 17β-estradiol on opsin signaling and transducin activation. We measured the ability of estradiol to modulate rhodopsin activation of bovine rod transducin using the radioactive filter binding assay as described in Kono et al., Biochemistry 44:799-804, 2005; and Kono & Crouch, Methods Mol. Biol. 652:85-94, 2010. […]

[2] = cited from earlier work

T1 sequence (P02699 whole entry): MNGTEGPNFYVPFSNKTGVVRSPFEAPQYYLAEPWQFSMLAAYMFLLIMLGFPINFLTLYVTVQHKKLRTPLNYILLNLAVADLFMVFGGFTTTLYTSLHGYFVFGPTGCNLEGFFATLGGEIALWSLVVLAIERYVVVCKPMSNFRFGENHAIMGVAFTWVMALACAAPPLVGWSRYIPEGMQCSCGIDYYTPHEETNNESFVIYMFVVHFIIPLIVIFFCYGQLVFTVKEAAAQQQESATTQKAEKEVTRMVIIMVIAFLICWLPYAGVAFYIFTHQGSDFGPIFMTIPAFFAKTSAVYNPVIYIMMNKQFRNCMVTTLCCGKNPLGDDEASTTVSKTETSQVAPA

C[C@]12CC[C@@H]3c4ccc(O)cc4CC[C@H]3[C@@H]1CC[C@@H]2O [17β-estradiol]
35S-GTPγS bound to transducin in the presence vs. absence of 17β-estradiol ([1]; bovine rhodopsin illuminated with 15 sec pulse of yellow light, Rho+estradiol vs Rho alone, FIG. 1): about three-fold
rhodopsin activation of rod transducin (result in words) ([1]; presence of 17β-estradiol): significantly up-regulated
potency in estrogenic effect relative to estriol ([2]; estradiol vs estriol): about 80 times
potency in estrogenic effect relative to estrone ([2]; estradiol vs estrone): about 10 times

— patent US20140378426A1, “Methods and compositions for enhancing visual function” (priority 2013, published 2014)
